For the test, the target named is Acyl-protein thioesterase 1 (Homo sapiens, UniProt O75608). Briefly: Inhibition of APT1.

Structures are written as SMILES.

Sequence of Acyl-protein thioesterase 1 (O75608 whole entry): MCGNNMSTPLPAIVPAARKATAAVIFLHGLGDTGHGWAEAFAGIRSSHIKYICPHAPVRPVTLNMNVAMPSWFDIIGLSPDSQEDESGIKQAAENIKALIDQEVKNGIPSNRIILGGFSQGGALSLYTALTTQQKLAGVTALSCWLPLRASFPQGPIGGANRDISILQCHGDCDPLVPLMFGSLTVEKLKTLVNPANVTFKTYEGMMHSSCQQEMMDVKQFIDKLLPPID

Compound `CCCCCCCCCC[C@@H]1C(=O)O[C@H]1CCc1ccc(OC)c(OC)c1` [PALMOSTATIN B] gave an IC50 of 0.67 µM.

Values taken from ChEMBL document CHEMBL1671770, “Small molecule inhibition of protein depalmitoylation as a new approach towards downregulation of oncogenic Ras signalling” (Bioorg Med Chem, 2011).
